How the values were obtained:
[1] = tested on: healthy subjects; assay: FIH study, SAD part (and integrated FE arm): safety and tolerability
Procedure: In Groups A1, A2, A3, and A4, subjects received a single oral dose of an IR formulation of IMB-1018972 or placebo under fasted conditions (an overnight fast of at least 10 hours). […] Each subject participated in only 1 group during the study.
(§2) AEs were recorded from (first) admission until completion of the follow-up visit. Any clinically significant observations in results of clinical laboratory, 12-lead ECGs, vital signs, or physical examinations were recorded as AEs.
(§3) A treatment-emergent AE (TEAE) was defined as any event not present prior to (the first) administration of the study drug or any event already present that worsened in either severity or frequency following exposure to the study drug.
(§4) At several time points before and after drug administration, subjects were asked nonleading questions to determine the occurrence of AEs. Subjects were asked in general terms about any AEs at regular intervals during the study. In addition, all AEs reported spontaneously during the course of the study were recorded. Details included description of the event, date and time of onset, date and time of end, total duration, severity, relationship to study drug, intervention, seriousness, and outcome. All answers were interpreted by the Investigator and were recorded in the eCRF. All AEs were classified according to the Medical Dictionary for Regulatory Activities (MedDRA; Version 22.0) for AEs.
(§5) The severity of the AEs was rated as mild, moderate, or severe; the relationship between the AEs and the study drug was indicated as none, unlikely, possibly, likely, or definitely. Adverse events assessed as possibly, likely, or definitely were considered related to the study drug; AEs assessed as none or unlikely were considered not related to the study drug.
(§6) The following parameters were measured: • Clinical chemistry (serum quantitatively): total bilirubin, alkaline phosphatase, gamma glutamyl transferase, aspartate aminotransferase (AST), alanine aminotransferase (ALT), lactate dehydrogenase, creatinine, urea, total protein, glucose, inorganic phosphate, sodium, potassium, • calcium, and chloride • Hematology (blood quantitatively): leukocytes, erythrocytes, hemoglobin, hematocrit, thrombocytes, partial automated differentiation (lymphocytes, monocytes, eosinophils, basophils, and neutrophils), mean corpuscular volume, mean corpuscular hemoglobin, and mean corpuscular hemoglobin concentration • Coagulation (blood quantitatively): prothrombin time (reported in seconds and as international normalized ratio), activated partial thromboplastin time, and fibrinogen • Urinalysis (urine qualitatively): hemoglobin, urobilinogen, ketones, glucose, and protein • Serology: HBsAg, anti-HCV, and anti-HIV 1 and 2 • Drug and alcohol screen: opiates, methadone, cocaine, amphetamines (including ecstasy), cannabinoids, barbiturates, benzodiazepines, tricyclic antidepressants, and alcohol • Pregnancy test (females only): (3-human chorionic gonadotropin in serum
(§7) Systolic and diastolic blood pressure and pulse were recorded after the subject had been resting for at least 5 minutes in the supine position. These assessments were made using an automated device. Body temperature and respiratory rate were measured subsequently.
(§8) The ECG was recorded using an ECG machine equipped with computer-based interval measurements (with no/minimal disturbance by procedures). The following ECG parameters were recorded: heart rate, PR-interval, QRS-duration, QT-interval, QTcF-interval, and the interpretation of the ECG profile by the Investigator.
In the SAD part (not in the second period of the FE group A4, and not in Group A5), a 12-lead ECG was recorded continuously by telemetry from 2 hours before to 24 hours after drug administration on Day 1.

[2] = tested on: healthy subjects; assay: FIH study, MAD part: safety and tolerability; type: in vivo, human
Procedure: Subjects received multiple oral doses of an IR formulation of IMB-1018972 or placebo once every 12 hours (q12h) for 14 consecutive days. Each subject participated in only 1 group during the study.
The doses were selected based upon the safety, tolerability, and PK data from the SAD part: • Group B1 multiple oral doses of an IR formulation of 150 mg IMB-1018972 (n=9) or matching placebo (n=3) twice daily (q12h) for 14 days; on Day 14 only a single morning dose was administered • Group B2: multiple oral doses of an IR formulation of 50 mg IMB-1018972 (n=9) or matching placebo (n=3) q12h for 14 days; on Day 14 only a single morning dose was administered
as §2, §3, §4, §5
In the MAD part, a 12-lead ECG was recorded continuously by telemetry from 2 hours before to 12 hours after drug administration on Day 1, and from 2 hours before to 24 hours after drug administration on Day 14.

[3] = tested on: healthy subjects; assay: FIH study, multiple-dose MR part: safety and tolerability; type: in vivo, human
Procedure: as §2, §3, §4, §5

[4] = tested on: patients with stable angina; assay: Blinded, randomized, controlled Phase 2 study IMB101-006 […]: spontaneously reported renal and urinary findings; type: in vivo, human; conditions: 200 mg MR BID for 8 weeks, blinded (N=22)
Procedure: (§1) In the early Phase 1 study in healthy volunteers and early Phase 2 studies in patients, there were instances of increased urine volume and increased urinary frequency spontaneously reported. • In the first-in-man study, CIMB8972-101, healthy volunteers were dosed with single doses of IMB-1018972 at 50 mg or 200 mg of the modified release (MR) formulation. Two of 12 subjects [2/12] (16.7%) reported 5 events of pollakiuria at both doses. • In an open label Phase 2 study (IMB101-005 DICE) treating patients with Type 2 Diabetes mellitus and obesity for 8 weeks with 200 mg MR BID, two of 22 patients [2/22] (9.1%) spontaneously reported renal and urinary findings. One patient reported pollakiuria and one patient reported increased nocturnal urinary frequency. • In a blinded, randomized, controlled, Phase 2 study (IMB101-006 […]) treating patients with stable angina for 8 weeks with 200 mg MR BID, one of 22 patients [1/22] (4.5%) spontaneously reported renal and urinary findings. One patient reported polyuria.

[5] = tested on: dog; assay: 28-day dog study (nonclinical toxicology: NOAEL and exposure); conditions: in vivo
Procedure: Based on the nonclinical toxicology data, it was considered that subjects in this clinical study were not at unreasonable risk of adverse effects. […] For a 60-kg individual, the NOAEL dose would be 6480 mg. With a 10-fold safety factor applied, this would allow for a maximum recommended starting dose (MRSD) of 648 mg/day.7,8 The planned starting dose in the current Phase 1 study was 50 mg, equivalent to 0.83 mg/kg/day for a 60-kg subject. This starting dose is less than 10% of the MRSD determined from the dog NOAEL and less than 1% of the dog NOAEL
The relevant animal study was the 28-day dog study where the NOAEL for IMB-1018972 was 200 mg/kg/day.

[6] = tested on: patients with Type 2 Diabetes mellitus and obesity; assay: Open label Phase 2 study IMB101-005 DICE: spontaneously reported renal and urinary findings; type: in vivo, human; conditions: 200 mg MR BID for 8 weeks (N=22)
Procedure: as §1

[7] = tested on: healthy subjects; assay: FIH study, whole study: safety and tolerability
Procedure: The study started with the SAD part.
as §2, §3, §4, §5, §6, §7, §8
Safety and tolerability were assessed through AEs, clinical laboratory, vital signs, ECGs, continuous cardiac monitoring (telemetry), and physical examination findings, and any other parameter that was relevant for safety assessment.

[8] = 150 mg IMB-1018972 fasted (fasted-fed group)
[9] = 150 mg IMB-1018972 fed (fasted-fed group)
[10] = SAD part, all IMB-1018972 doses (N=24)
[11] = MAD part, all IMB-1018972 doses (N=18)

## COc1ccc(CN2CCN(CCOC(=O)c3cccnc3)CC2)c(OC)c1OC [IMB-1018972, 2-[4-[(2,3,4-trimethoxyphenyl)methyl]piperazin-1-yl]ethyl pyridine-3-carboxylate]
[1]; 50 mg IMB-1018972 fasted
  Number of TEAEs: 3
  Subjects reporting TEAEs: 50.0%
[1]; 150 mg IMB-1018972 fasted
  Number of TEAEs: 5
  Subjects reporting TEAEs: 50.0%
[1]; [8]
  Number of TEAEs: 17
  Subjects reporting TEAEs: 66.7%
[1]; [9]
  Number of TEAEs: 4
  Subjects reporting TEAEs: 20%
[1]; 400 mg IMB-1018972 fasted
  Number of TEAEs: 16
  Subjects reporting TEAEs: 100%
[1]; FE arm of the SAD part, 150 mg
  Effect of dosing under fed conditions on number and incidence of TEAEs: appeared to attenuate
[1]; SAD part
  Severe TEAEs: No severe TEAEs
[1]; SAD part, IMB-1018972
  Number of TEAEs of flushing: 6
  Number of TEAEs of flushing of mild severity: 1
  Number of TEAEs of flushing of moderate severity: 5
[1]; SAD part, IMB-1018972 (N=24)
  Number of TEAEs considered related to the study drug: 21
  Number of TEAEs, SOC gastrointestinal disorders: 9
  Number of TEAEs, SOC general disorders and administration site conditions: 9
  Number of TEAEs, SOC nervous system disorders: 9
  Number of TEAEs, SOC skin and subcutaneous tissue disorders: 4
  Number of TEAEs, SOC vascular disorders: 7
  Number of drug-related TEAEs, nervous system disorders: 5
  Number of drug-related TEAEs, vascular disorders (flushing): 6
  Subjects reporting TEAEs considered related to the study drug: 29.2%
  Subjects reporting TEAEs, SOC gastrointestinal disorders: 16.7%
  Subjects reporting TEAEs, SOC general disorders and administration site conditions: 20.8%
  Subjects reporting TEAEs, SOC nervous system disorders: 29.2%
  Subjects reporting TEAEs, SOC skin and subcutaneous tissue disorders: 16.7%
  Subjects reporting TEAEs, SOC vascular disorders: 29.2%
  Subjects reporting drug-related TEAEs, nervous system disorders: 16.7%
  Subjects reporting drug-related TEAEs, vascular disorders (flushing): 25%
[1]; [10]
  Number of TEAEs: 45
  Subjects reporting TEAEs: 66.7%
[1]; SAD part, of 48 TEAEs with IMB-1018972 or placebo
  Number of TEAEs of moderate severity: 11
[1]; following 50 mg and 150 mg (fasted only group) IMB-1018972
  Drug-related TEAEs: No drug-related TEAEs
[1]; single 150 mg IMB-1018972, fasted, FE arm
  Subjects who reported flushing: 2 subjects
[1]; single 400 mg IMB-1018972, fasted
  Subjects who reported flushing: Four
[1]; single oral IMB-1018972 50, 150, 400 mg fasted and 150 mg fed
  Tolerability: well tolerated
[2]; 50 mg IMB-1018972 q12h
  TEAEs of flushing: No TEAEs of flushing
[2]; 50 mg IMB-1018972 q12h fed
  Number of TEAEs: 21
  Subjects reporting TEAEs: 77.8%
[2]; 150 mg IMB-1018972 q12h
  Number of TEAEs of flushing (incidental, mild): 7
  Subjects with TEAEs of flushing: 6 subjects
[2]; 150 mg IMB-1018972 q12h fed
  Number of TEAEs: 14
  Subjects reporting TEAEs: 77.8%
[2]; 14-day oral q12h 50 mg and 150 mg IMB-1018972, fed
  Tolerability: well tolerated
[2]; MAD part
  Severity of all TEAEs: mild
[2]; MAD part, IMB-1018972 (N=18)
  Number of TEAEs considered not related to the study drug: 28
  Number of TEAEs, SOC general disorders and administration site conditions: 7
  Number of TEAEs, SOC musculoskeletal and connective tissue disorders: 7
  Number of TEAEs, SOC vascular disorders (flushing): 7
  Subjects reporting TEAEs considered not related to the study drug: 61.1%
  Subjects reporting TEAEs considered related to the study drug: 33.3%
  Subjects reporting TEAEs, SOC general disorders and administration site conditions: 27.8%
  Subjects reporting TEAEs, SOC musculoskeletal and connective tissue disorders: 27.8%
  Subjects reporting TEAEs, SOC vascular disorders (flushing): 33.3%
[2]; MAD part, IMB-1018972 (N=18), all flushing at 150 mg q12h
  Number of TEAEs considered related to the study drug: 7
[2]; [11]
  Number of TEAEs: 35
  Subjects reporting TEAEs: 77.8%
[3]; 200 mg 8-hour MR q12h, fed
  Severity of flushing (2 subjects): mild
[3]; multiple-dose MR part
  Severity of all TEAEs: mild
[3]; multiple-dose MR part (N=12)
  Number of TEAEs: 40
  Number of TEAEs considered not related to the study drug: 30
  Number of TEAEs considered related to the study drug: 10
  Number of TEAEs, SOC gastrointestinal disorders: 9
  Number of TEAEs, SOC general disorders and administration site conditions: 4
  Number of TEAEs, SOC musculoskeletal and connective tissue disorders: 4
  Number of TEAEs, SOC nervous system disorders: 9
  Number of TEAEs, SOC renal and urinary disorders (pollakiuria): 4
  Number of drug-related TEAEs of flushing: 2
  Number of drug-related TEAEs of pollakiuria: 4
  Number of drug-related TEAEs, nervous system disorders: 2
  Subjects reporting TEAEs: 100%
  Subjects reporting TEAEs considered not related to the study drug: 75%
  Subjects reporting TEAEs considered related to the study drug: 58.3%
  Subjects reporting TEAEs, SOC gastrointestinal disorders: 41.7%
  Subjects reporting TEAEs, SOC general disorders and administration site conditions: 33.3%
  Subjects reporting TEAEs, SOC musculoskeletal and connective tissue disorders: 33.3%
  Subjects reporting TEAEs, SOC nervous system disorders: 58.3%
  Subjects reporting TEAEs, SOC renal and urinary disorders (pollakiuria): 33.3%
  Subjects reporting drug-related TEAEs of flushing: 16.7%
  Subjects reporting drug-related TEAEs of pollakiuria: 33.3%
  Subjects reporting drug-related TEAEs, nervous system disorders: 16.7%
[4]
  Patients reporting polyuria: One
  Patients spontaneously reporting renal and urinary findings: 4.5%
[5]
  NOAEL dose for a 60-kg individual (HED): 6480 mg
[5]; 28 days
  Maximum recommended starting dose (MRSD), 10-fold safety factor: 648 mg/day
[6]
  Patients reporting increased nocturnal urinary frequency: one
  Patients reporting pollakiuria: One
  Patients spontaneously reporting renal and urinary findings: 9.1%
[7]; 1 SAE influenza like illness, 1 TEAE ALT increased
  Subjects withdrawn from the study due to adverse events: Two
[7]; IR or MR formulations
  Hemodynamic changes and QTc-interval: no findings of hemodynamic changes, nor changes in the QTc-interval
[7]; overall
  Dose dependency of number and incidence of TEAEs: no clear dose dependency
[7]; single and multiple oral doses, IR and MR formulations
  Overall tolerability: generally well tolerated
[7]; whole study
  Clinical laboratory, vital signs, 12-lead ECG, continuous cardiac monitoring (telemetry), physical examination: no findings of clinical relevance
  Deaths: no deaths
  Severe TEAEs: no severe TEAEs
[7]; whole study, all treatments
  Number of TEAEs of moderate severity: 12
  Total number of TEAEs: 181

— patent publication US12285428B2 (IMBRIA PHARMACEUTICALS, INC., priority 2021, dated 2025)
